Measured values published in patent US9326513B2, “Fungicidal compositions” (Syngenta Participations AG, priority 2011, dated 2016).
Like-named read-outs stand apart in the source and are kept apart here.

Tests used:
Type in all cases: cell-based
[1] = test system: Septoria tritici; assay: Septoria tritici (leaf blotch), YBG microtiter plate, photometric growth inhibition after 6 days; conditions: Zymoseptoria tritici, 144 h
Description: In the following Tables ‘Activity (%)’ means the assessed experimental activity (% disease control in this test when compared to untreated control leaf disks under the same conditions, which show extensive disease development) and “P” is the expected value calculated (expected) activity according to the COLBY formula (see above). The column headed ‘S?’ indicates whether or not synergy was observed, with ‘y’ meaning that synergy was observed.
Septoria tritici (Leaf Blotch):
After placing solutions of the test compounds (containing 0.2% DMSO) into a microtiter plate (96-well format), an equal amount of the nutrient broth (YBG) was added to each of the well. Finally the fungal spore solution was added. The test plates were incubated at 20° C. The inhibition of growth was determined photometrically after 6 days and the activity calculated in relation to untreated control.

[2] = test system: Mycosphaerella arachidis (y. Cercospora arachidicola); assay: Mycosphaerella arachidis (brown leaf spot of groundnut), PDB microtiter plate, visual after 5-6 days
[3] = test system: Monographella nivalis (syn. Microdochium nivale, Fusarium nivale); assay: Monographella nivalis (snow mould, foot rot of cereals), PDB microtiter plate, visual after 72 hrs; conditions: applied alone; for inhibition at 0.015625 ppm: rate 0.015625 ppm
[4] = test system: Botrytis cinerea; assay: Botrytis cinerea (gray mould), PDB microtiter plate, visual after 72 hrs; conditions: for inhibition at 0.125 ppm: rate 0.125 ppm; for inhibition at 0.25 ppm: rate 0.25 ppm; for inhibition at 0.5 ppm: rate 0.5 ppm
[5] = test system: Septoria tritici; assay: Septoria tritici (leaf blotch), PDB microtiter plate, visual after 72 hrs
[6] = Mycosphaerella arachidis, single compound, 0.0625 ppm, read-out: Activity (%)
[7] = Mycosphaerella arachidis, single compound, 0.00390625 ppm, read-out: Activity (%)
[8] = Mycosphaerella arachidis, single compound, 0.0078125 ppm, read-out: Activity (%)
[9] = Mycosphaerella arachidis, single compound, 0.015625 ppm, read-out: Activity (%)
[10] = Mycosphaerella arachidis, single compound, 0.03125 ppm, read-out: Activity (%)
[11] = Botrytis cinerea, alone, rate 0.0625 ppm, read-out: Activity (%)
[12] = Botrytis cinerea, single compound
[13] = Monographella nivalis, 0.0625 ppm
[14] = Monographella nivalis, 0.125 ppm
[15] = Monographella nivalis, 0.25 ppm
[16] = Monographella nivalis, rate 0.03125 ppm
[17] = Monographella nivalis, rate 0.0625 ppm
[18] = Monographella nivalis, rate 0.125 ppm
[19] = Zymoseptoria tritici, single compound
[20] = Zymoseptoria tritici, single compound, 0.0625 ppm
[21] = Monographella nivalis, rate 0.25 ppm
[22] = Monographella nivalis, rate 0.5 ppm
[23] = Monographella nivalis, rate 1 ppm

SMILES: Fc1ccc([C@]2(Cn3cncn3)O[C@H]2c2ccccc2Cl)cc1 (racemic) [Epoxiconazole]
- inhibition of growth at 0.15625 ppm ([1]; solo, rate 0.15625 ppm, read-out: Activity): 65%
- inhibition of growth at 0.625 ppm ([1]; solo, rate 0.625 ppm): 71%

SMILES: Cn1cc(C(=O)Nc2ccc(F)cc2-c2ccc(Cl)c(Cl)c2)c(C(F)F)n1 [Bixafen]
- Activity (%) ([2]; single compound, 0.03125 ppm): 50%
- Activity (%) ([2]; single compound, 0.0625 ppm): 70%
- Activity (%) ([3]; 0.25 ppm): 20%

SMILES: Cc1cc(C2CC2)nc(Nc2ccccc2)n1 [Cyprodinil]
- inhibition at 0.00078125 ppm ([2]; Mycosphaerella arachidis, single compound, 0.00078125 ppm): 0%
- inhibition at 0.00125 ppm ([2]; Mycosphaerella arachidis, single compound, 0.00125 ppm): 0%
- inhibition at 0.0015625 ppm ([2]; Mycosphaerella arachidis, single compound, 0.0015625 ppm): 0%
- inhibition at 0.003125 ppm ([2]; Mycosphaerella arachidis, single compound, 0.003125 ppm): 0%
- inhibition at 0.025 ppm ([2]; Mycosphaerella arachidis, single compound, 0.025 ppm): 0%
- inhibition at 0.05 ppm ([2]; Mycosphaerella arachidis, single compound, 0.05 ppm): 0%
- inhibition at 0.0625 ppm [2, 6]: 0%
- inhibition at 0.1 ppm ([2]; Mycosphaerella arachidis, single compound, 0.1 ppm): 0%
- inhibition at 0.2 ppm ([2]; Mycosphaerella arachidis, single compound, 0.2 ppm): 0%
- inhibition at 0.0015625 ppm ([3]; Monographella nivalis, 0.0015625 ppm): 0%
- inhibition at 0.003125 ppm ([3]; Monographella nivalis, 0.003125 ppm): 20%

SMILES: CC(Cc1ccc(C(C)(C)C)cc1)CN1C[C@@H](C)O[C@@H](C)C1 (stereo partly shown) [Fenpropimorph]
- inhibition at 0.00390625 ppm [2, 7]: 20%
- inhibition at 0.0078125 ppm [2, 8]: 20%
- inhibition at 0.015625 ppm [2, 9]: 50%
- inhibition at 0.03125 ppm [2, 10]: 50%
- inhibition at 0.0625 ppm [2, 6]: 70%
- inhibition at 0.0625 ppm [4, 11]: 0%
- inhibition at 0.125 ppm ([4]; Botrytis cinerea, alone): 0%
- inhibition at 0.25 ppm ([4]; Botrytis cinerea, alone): 0%
- inhibition at 0.5 ppm ([4]; Botrytis cinerea, alone): 70%
- inhibition at 0.125 ppm [4, 12]: 0%
- inhibition at 0.25 ppm [4, 12]: 0%
- inhibition at 0.5 ppm [4, 12]: 70%
- inhibition at 0.0625 ppm [3, 13]: 0%
- inhibition at 0.125 ppm [3, 14]: 0%
- inhibition at 0.25 ppm [3, 15]: 0%
- inhibition at 0.5 ppm ([3]; Monographella nivalis, 0.5 ppm): 0%
- inhibition at 2 ppm ([3]; Monographella nivalis, 2 ppm): 20%
- inhibition at 0.0078125 ppm ([3]; Monographella nivalis, rate 0.0078125 ppm): 0%
- inhibition at 0.015625 ppm ([3]; Monographella nivalis): 0%
- inhibition at 0.03125 ppm [3, 16]: 0%
- inhibition at 0.0625 ppm [3, 17]: 0%
- inhibition at 0.125 ppm [3, 18]: 0%

SMILES: O=[N+]([O-])c1cc(C(F)(F)F)c(Cl)c([N+](=O)[O-])c1Nc1ncc(C(F)(F)F)cc1Cl [Fluazinam]
- inhibition at 0.00390625 ppm [2, 7]: 0%
- inhibition at 0.0078125 ppm [2, 8]: 0%
- inhibition at 0.015625 ppm [2, 9]: 0%
- inhibition at 0.03125 ppm [2, 10]: 0%
- inhibition at 0.0625 ppm [2, 6]: 20%
- inhibition at 0.015625 ppm ([5]; Zymoseptoria tritici, single compound, 0.015625 ppm): 0%
- inhibition at 0.03125 ppm [5, 19]: 20%
- inhibition at 0.0625 ppm [5, 20]: 70%

SMILES: N#Cc1c[nH]cc1-c1cccc2c1OC(F)(F)O2 [Fludioxonil]
- inhibition at 0.00390625 ppm ([2]; Mycosphaerella arachidis, read-out: Activity (%), single compound, 0.00390625 ppm): 0%
- inhibition at 0.0078125 ppm ([2]; Mycosphaerella arachidis, read-out: Activity (%), single compound, 0.0078125 ppm): 0%
- inhibition at 0.015625 ppm ([2]; Mycosphaerella arachidis, read-out: Activity (%), single compound, 0.015625 ppm): 0%
- inhibition at 0.03125 ppm ([2]; Mycosphaerella arachidis, read-out: Activity (%), single compound, 0.03125 ppm): 0%
- inhibition at 0.0625 ppm ([2]; Mycosphaerella arachidis, read-out: Activity (%), single compound, 0.0625 ppm): 0%
- inhibition at 0.125 ppm ([2]; Mycosphaerella arachidis, read-out: Activity (%), single compound, 0.125 ppm): 0%
- inhibition at 0.25 ppm ([2]; Mycosphaerella arachidis, read-out: Activity (%), single compound, 0.25 ppm): 0%
- inhibition at 0.5 ppm ([2]; Mycosphaerella arachidis, read-out: Activity (%), single compound, 0.5 ppm): 70%
- Activity (%) ([2]; single compound, 0.5 ppm): 50%
- inhibition at 0.03125 ppm ([4]; Botrytis cinerea, read-out: Activity (%), alone, rate 0.03125 ppm): 0%
- inhibition at 0.0625 ppm ([4]; Botrytis cinerea, read-out: Activity (%), alone, rate 0.0625 ppm): 70%
- Activity (%) ([4]; alone, rate 0.0625 ppm): 50%
- inhibition at 0.25 ppm ([5]; Zymoseptoria tritici, read-out: Activity (%)): 70%

SMILES: OC(Cn1cncn1)(c1ccc(F)cc1)c1ccccc1F (stereo not shown) [Flutriafol]
- inhibition at 0.125 ppm ([4]; Botrytis cinerea, alone): 0%
- inhibition at 0.25 ppm ([4]; Botrytis cinerea, alone): 0%
- inhibition at 0.5 ppm ([4]; Botrytis cinerea, alone): 0%
- inhibition at 1 ppm ([4]; Botrytis cinerea, alone, rate 1 ppm): 0%
- inhibition at 2 ppm ([4]; Botrytis cinerea, alone, rate 2 ppm): 0%
- inhibition at 0.5 ppm ([5]; Zymoseptoria tritici, single compound, 0.5 ppm): 0%
- inhibition at 1 ppm ([5]; Zymoseptoria tritici, single compound, 1 ppm): 0%
- inhibition at 0.0625 ppm [3, 13]: 0%
- inhibition at 0.125 ppm [3, 14]: 0%
- inhibition at 0.25 ppm [3, 15]: 0%
- inhibition at 0.5 ppm ([3]; Monographella nivalis, 0.5 ppm): 0%
- inhibition at 0.03125 ppm [3, 16]: 0%
- inhibition at 0.0625 ppm [3, 17]: 0%
- inhibition at 0.125 ppm [3, 18]: 0%
- inhibition at 0.25 ppm [3, 21]: 0%
- inhibition at 0.5 ppm [3, 22]: 0%
- inhibition at 1 ppm [3, 23]: 0%
- inhibition at 2 ppm ([3]; Monographella nivalis, rate 2 ppm): 0%

SMILES: C#CCOc1ccc(CCNC(=O)C(OCC#C)c2ccc(Cl)cc2)cc1OC (stereo not shown) [Mandipropamid]
- Activity (%) ([4]; alone, rate 5 ppm): 0%
- Activity (%) ([4]; alone, rate 10 ppm): 0%
- Activity (%) ([4]; alone, rate 20 ppm): 0%
- Activity (%) ([5]; single compound, 0.5 ppm): 70%
- Activity (%) ([3]; rate 0.03125 ppm): 0%
- Activity (%) ([3]; rate 0.0625 ppm): 0%

SMILES: CC1(C)CCC(Cc2ccc(Cl)cc2)C1(O)Cn1cncn1 (stereo not shown) [Metconazole]
- inhibition at 0.015625 ppm ([4]; Botrytis cinerea, alone, rate 0.015625 ppm): 0%
- inhibition at 0.03125 ppm ([4]; Botrytis cinerea, alone, rate 0.03125 ppm, read-out: Activity (%)): 0%
- inhibition at 0.03125 ppm [5, 19]: 0%
- inhibition at 0.0625 ppm [5, 20]: 70%
- Activity (%) ([5]; single compound, 0.0625 ppm): 50%
- inhibition at 0.0625 ppm [3, 13]: 0%
- inhibition at 0.125 ppm [3, 14]: 0%
- inhibition at 0.25 ppm [3, 15]: 0%
- inhibition at 0.5 ppm ([3]; Monographella nivalis, 0.5 ppm): 0%
- inhibition at 1 ppm ([3]; Monographella nivalis, 1 ppm): 20%
- inhibition at 0.015625 ppm ([3]; Monographella nivalis): 0%
- inhibition at 0.03125 ppm [3, 16]: 0%
- inhibition at 0.0625 ppm [3, 17]: 0%
- inhibition at 0.125 ppm [3, 18]: 0%
- inhibition at 0.25 ppm [3, 21]: 0%
- inhibition at 0.5 ppm [3, 22]: 0%
- inhibition at 1 ppm [3, 23]: 20%

SMILES: CCCN(CCOc1c(Cl)cc(Cl)cc1Cl)C(=O)n1ccnc1 [Prochloraz]
- inhibition of growth at 0.015625 ppm ([1]; read-out: Activity): 48%
- inhibition of growth at 0.03125 ppm ([1]; read-out: Activity): 80%

SMILES: CCCC1COC(Cn2cncn2)(c2ccc(Cl)cc2Cl)O1 (stereo not shown) [Propiconazole]
- inhibition at 0.0625 ppm [4, 11]: 0%
- inhibition at 0.125 ppm ([4]; Botrytis cinerea, alone): 0%
- inhibition at 0.25 ppm ([4]; Botrytis cinerea, alone): 0%
- inhibition at 0.5 ppm ([4]; Botrytis cinerea, alone): 50%
- inhibition at 0.25 ppm [4, 12]: 0%
- inhibition at 0.5 ppm [4, 12]: 50%
- inhibition at 0.125 ppm ([5]; Zymoseptoria tritici, single compound, 0.125 ppm): 50%
- inhibition at 0.0625 ppm [3, 13]: 0%
- inhibition at 0.125 ppm [3, 14]: 0%
- inhibition at 0.25 ppm [3, 15]: 0%
- inhibition at 0.5 ppm ([3]; Monographella nivalis, 0.5 ppm): 0%
- inhibition at 1 ppm ([3]; Monographella nivalis, 1 ppm): 20%
- inhibition at 0.015625 ppm ([3]; Monographella nivalis): 0%
- inhibition at 0.03125 ppm [3, 16]: 0%
- inhibition at 0.0625 ppm [3, 17]: 0%
- inhibition at 0.125 ppm [3, 18]: 0%
- inhibition at 0.25 ppm [3, 21]: 0%

SMILES: Cn1cc(C(=O)Nc2ccccc2C2CC2C2CC2)c(C(F)F)n1 (stereo not shown) [Sedaxan]
- Activity (%) ([2]; single compound, 0.00390625 ppm): 0%
- Activity (%) ([2]; single compound, 0.015625 ppm): 0%
- Activity (%) ([2]; single compound, 0.03125 ppm): 0%
- Activity (%) ([2]; single compound, 0.0625 ppm): 0%
- Activity (%) ([2]; single compound, 0.125 ppm): 0%

SMILES: CC(C)(C)C(O)(CCc1ccc(Cl)cc1)Cn1cncn1 (stereo not shown) [Tebuconazole]
- inhibition of growth at 1.25 ppm ([1]; solo, rate 1.25 ppm): 0%
- inhibition of growth at 2.5 ppm ([1]; solo, rate 2.5 ppm): 47%
- inhibition of growth at 5 ppm ([1]; solo, rate 5 ppm): 73%
